{"source": "patent US4624955A", "about": "“6H-isoxazolo[3,4-d]pyrazolo[3,4-b]pyridines, method for their preparation and use as anxiolytic agents” (Hoechst-Roussel Pharmaceuticals, priority 1985, dated 1986)"}
{"target": "benzodiazepin recognition sites in a membrane preparation from rat brain", "test": "3H-Flunitrazepam binding (displacement from benzodiazepine recognition sites; anxiolytic activity)", "set-up": "species or system rat (male Wistar)", "details": "rat cerebral cortex membranes; 2 nM 3H-flunitrazepam; pH 6.9; 20 minutes at 0-4 °C; log-probit analysis", "units": {"IC50": "nM"}}
{"smiles": "CCn1ncc2c3noc(-c4cccc(Cl)c4)c3cnc21", "note": "[3-(3-Chlorophenyl)-6-ethyl-6H-isoxazolo[3,4-d]pyrazolo[3,4-b]pyridine]", "IC50": 4400}
{"smiles": "CCn1ncc2c3noc(-c4ccc(Cl)cc4)c3cnc21", "note": "[3-(4-Chlorophenyl)-6-ethyl-6H-isoxazolo[3,4-d]pyrazolo[3,4-b]pyridine]", "IC50": 400}
{"smiles": "CCn1ncc2c3noc(-c4ccccc4OC)c3cnc21", "note": "[6-Ethyl-3-(2-methoxyphenyl)-6H-isoxazolo[3,4-d]pyrazolo[3,4-b]pyridine]", "IC50": 2000}
{"smiles": "CCn1ncc2c3noc(-c4cccc(F)c4)c3cnc21", "note": "[6-Ethyl-3-(3-fluorophenyl)-6H-isoxazolo[3,4-d]pyrazolo[3,4-b]pyridine]", "IC50": 2300}
{"smiles": "CCn1ncc2c3noc(-c4ccc(F)cc4)c3cnc21", "note": "[6-Ethyl-3-(4-fluorophenyl)-6H-isoxazolo[3,4-d]pyrazolo[3,4-b]pyridine]", "IC50": 530}
{"smiles": "CCn1ncc2c3noc(-c4ccc(OC)cc4)c3cnc21", "note": "[6-Ethyl-3-(4-methoxyphenyl)-6H-isoxazolo[3,4-d]pyrazolo[3,4-b]pyridine]", "IC50": 1200}
{"smiles": "CCn1ncc2c3noc(-c4ccc(C)cc4)c3cnc21", "note": "[6-Ethyl-3-(4-tolyl)-6H-isoxazolo[3,4-d]pyrazolo[3,4-b]pyridine]", "IC50": 990}
{"smiles": "CCn1ncc2c3noc(-c4ccccc4)c3cnc21", "note": "[6-Ethyl-3-phenyl-6H-isoxazolo[3,4-d]pyrazolo[3,4-b]pyridine]", "IC50": 470}
{"smiles": "CNC1=Nc2ccc(Cl)cc2C(c2ccccc2)=[N+]([O-])C1", "note": "[Chlordiazepoxide, reference compound]", "IC50": 340}
